In patent publication US7674795B2, “Fluorene derivatives, composition containing said derivatives and the use thereof” (Aventis Pharma SA, priority 2005, dated 2010):
Counter-ions that a name gives are not always drawn.

Biological target: Hsp82 (Saccharomyces cerevisiae, UniProt P02829)
Test: PK/LDH enzyme coupling test of the ATPase activity of Hsp82 (NADH decrease at 340 nm)
Type: biochemical
Conditions: 1 μM Hsp82, 250 μM ATP, 37° C., pyruvate kinase/lactate dehydrogenase coupling, read-out: Hsp82 ATPase IC50
In short: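 Yeast Hsp82 ATPase was coupled to PK/LDH, with ADP formation followed continuously as NADH loss at 340 nm at 37 °C. The mixture was preincubated 30 min at 37 °C, and the reaction was started with compound at variable concentrations plus Hsp82 at 1 μM. Initial rates (μM ADP/min) came from the tangent slope at origin, expressed as % inhibition.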

Chain of Hsp82 (P02829 whole entry): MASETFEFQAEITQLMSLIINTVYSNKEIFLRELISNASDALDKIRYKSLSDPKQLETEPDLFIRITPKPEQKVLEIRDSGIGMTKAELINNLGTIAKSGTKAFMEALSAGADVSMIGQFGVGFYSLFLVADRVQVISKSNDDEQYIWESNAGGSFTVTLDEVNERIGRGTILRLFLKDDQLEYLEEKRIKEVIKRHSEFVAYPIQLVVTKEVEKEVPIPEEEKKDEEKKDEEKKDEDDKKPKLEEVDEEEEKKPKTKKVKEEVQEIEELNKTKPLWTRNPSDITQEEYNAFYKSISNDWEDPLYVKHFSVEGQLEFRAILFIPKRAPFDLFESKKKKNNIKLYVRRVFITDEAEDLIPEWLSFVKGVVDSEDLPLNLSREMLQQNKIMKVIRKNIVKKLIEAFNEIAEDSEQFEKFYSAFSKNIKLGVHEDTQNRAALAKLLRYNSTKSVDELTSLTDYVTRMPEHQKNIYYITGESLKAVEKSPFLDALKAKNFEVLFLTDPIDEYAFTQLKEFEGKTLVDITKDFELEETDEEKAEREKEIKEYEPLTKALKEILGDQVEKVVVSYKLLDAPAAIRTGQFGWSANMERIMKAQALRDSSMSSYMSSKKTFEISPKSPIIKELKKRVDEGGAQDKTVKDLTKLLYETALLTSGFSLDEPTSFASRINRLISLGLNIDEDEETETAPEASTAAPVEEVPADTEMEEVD

## NC(=O)[C@H](N)CC(=O)NC1c2ccccc2-c2c(-c3nc4cnccc4[nH]3)cccc21 (mixture of isomers) [Example 62, (R)-2-amino-N4-[4-(3H-imidazo[4,5-c]pyridin-2-yl)-9H-fluoren-9(R,S)-yl]-succinamide]
  IC50: 1 to 10 µM

## c1ccc2c(c1)-c1c(-c3nc4ccncc4[nH]3)cccc1C2NCc1cccc2ncccc12 (racemic) [Example 26, trifluoroacetate of N-[4-(3H-imidazo[4,5-c]pyridin-2-yl)-9H-fluoren-9(R,S)-yl]-quinolin-5-yl-methylamine]
  IC50: 1 to 10 µM

## Nc1nc(CC(=O)NC2c3ccccc3-c3c(-c4nc5cnccc5[nH]4)cccc32)cs1 (racemic) [Example 24, trifluoroacetate of 2-(2-amino-thiazol-4-yl)-N-[4-(3H-imidazo[4,5-c]pyridin-2-yl)-9H-fluoren-9(R,S)-yl]-acetamide]
  IC50: 1 to 10 µM

## O=C(NC1c2ccccc2-c2c(-c3nc4cnccc4[nH]3)cccc21)c1ccnc2ccccc12 (racemic) [Example 67, [4-(3H-imidazo[4,5-c]pyridin-2-yl)-9H-fluoren-9(R,S)-yl]amide of quinoline-4-carboxylic acid]
  IC50: < 1 µM

## CC(=O)NC1c2ccccc2-c2c(-c3nc4ccncc4[nH]3)cccc21 (racemic) [Example 72, N-[4-(3H-imidazo[4,5-c]pyridin-2-yl)-9H-fluoren-9(R,S)-yl]-acetamide]
  IC50: 1 to 10 µM

## O=C(NCc1ccc(Cl)nc1)C1c2ccccc2-c2c(-c3nc4cnccc4[nH]3)cccc21 (racemic) [Example 2, (6-chloropyridin-3-ylmethyl)-amide of 4-(1H-imidazo[4,5-c]pyridin-2-yl)-9H-fluorene-9(R,S)-carboxylic acid]
  IC50: 10 to 100 µM

## O=C(Cc1ccc(Cl)nc1)NC1c2ccccc2-c2c(-c3nc4cnccc4[nH]3)cccc21 (racemic) [Example 25, 2-(6-chloropyridin-3-yl)-N-[4-(3H-imidazo[4,5-c]pyridin-2-yl)-9H-fluoren-9(R,S)-yl]-acetamide]
  IC50: 1 to 10 µM

## NC(=O)NCC(=O)NC1c2ccccc2-c2c(-c3nc4cnccc4[nH]3)cccc21 (racemic) [Example 58, N-[4-(3H-imidazo[4,5-c]pyridin-2-yl)-9H-fluoren-9(R,S)-yl]-2-ureido-acetamide]
  IC50: 1 to 10 µM

## O=C(NC1c2ccccc2-c2c(-c3nc4ccncc4[nH]3)cccc21)c1ccc2[nH]ncc2c1 (racemic) [Example 45, [4-(3H-imidazo[4,5-c]pyridin-2-yl)-9H-fluoren-9(R,S)-yl]amide of 1H-indazole-5-carboxylic acid]
  IC50: 1 to 10 µM

## O=C(NC1c2ccccc2-c2c(-c3nc4ccncc4[nH]3)cccc21)c1cc(O)nc(O)n1 (stereo not shown) [Example 88, [4-(3H-imidazo[4,5-c]pyridin-2-yl)-9H-fluoren-9-yl]amide of 2,6-dihydroxypyrimidine-4-carboxylic acid]
  IC50: 1 to 10 µM

## N#Cc1cc(C(=O)NC2c3ccccc3-c3c(-c4nc5ccncc5[nH]4)cccc32)ccn1 (racemic) [Example 105, 2-cyano-N-[4-(3H-imidazo[4,5-c]pyridin-2-yl)-9H-fluoren-9(R,S)-yl]-isonicotinamide]
  IC50: 1 to 10 µM

## O=C(NC1c2ccccc2-c2c(-c3nc4ccncc4[nH]3)cccc21)c1ccncc1 (racemic) [Example 47, N-[4-(3H-imidazo[4,5-c]pyridin-2-yl)-9H-fluoren-9(R,S)-yl]-isonicotinamide]
  IC50: < 1 µM

## CN(C)c1cccc2c(S(=O)(=O)NC3c4ccccc4-c4c(-c5nc6ccncc6[nH]5)cccc43)cccc12 (racemic) [Example 52, [4-(3H-imidazo[4,5-c]pyridin-2-yl)-9H-fluoren-9(R,S)-yl]amide trifluoroacetate of 5-dimethylamino-naphthalene-1-sulphonic acid]
  IC50: 10 to 100 µM

## O=C(NC1c2ccccc2-c2c(-c3nc4ccncc4[nH]3)cccc21)c1ccncc1O (racemic) [Example 103, 3-hydroxy-N-[4-(3H-imidazo[4,5-c]pyridin-2-yl)-9H-fluoren-9(R,S)-yl]-isonicotinamide]
  IC50: < 1 µM

## C[C@@H](C(=O)N[C@@H]1c2ccccc2-c2c(-c3nc4ccncc4[nH]3)cccc21)c1cccnc1 (racemic) [Example 100, N-[4-(3H-imidazo[4,5-c]pyridin-2-yl)-9H-fluoren-9(R,S)-yl]-2(R,S)-(pyridin-3-yl)-propionamide]
  IC50: 10 to 100 µM

## Nc1cccc(C(=O)NC2c3ccccc3-c3c(-c4nc5ccncc5[nH]4)cccc32)c1 (racemic) [Example 115, 3-amino-N-[4-(3H-imidazo[4,5-c]pyridin-2-yl)-9H-fluoren-9(R,S)-yl]-benzamide]
  IC50: 10 to 100 µM

## CC(=O)Nc1cc(C(=O)NC2c3ccccc3-c3c(-c4nc5cnccc5[nH]4)cccc32)ccn1 (racemic) [Example 66, 2-acetylamino-N-[4-(3H-imidazo[4,5-c]pyridin-2-yl)-9H-fluoren-9(R,S)-yl]-isonicotinamide]
  IC50: < 1 µM

## NC(=O)NN=C1c2ccccc2-c2c1cccc2-c1nc2ccncc2[nH]1 [Example 30, trifluoroacetate of 4-(3H-imidazo[4,5-c]pyridin-2-yl)-fluoren-9-one semicarbazone (Z, E)]
  IC50: 10 to 100 µM

## O=C(NC1c2ccccc2-c2c(-c3nc4ccncc4[nH]3)cccc21)c1ccc2[nH]nnc2c1 (racemic) [Example 41, [4-(3H-imidazo[4,5-c]pyridin-2-yl)-9H-fluoren-9(R,S)-yl]amide trifluoroacetate of 1H-benzotriazole-5-carboxylic acid]
  IC50: < 1 µM

## O=C(NCc1ccncc1)C1c2ccccc2-c2c(-c3nc4cnccc4[nH]3)cccc21 (racemic) [Example 4, hydrochloride of the (pyridin-4-ylmethyl)-amide of 4-(3H-imidazo[4,5-c]pyridin-2-yl)-9H-fluorene-9(R,S)-carboxylic acid]
  IC50: 10 to 100 µM

## CC(C)(C)OC(=O)Nc1cc(C(=O)NC2c3ccccc3-c3c(-c4nc5ccncc5[nH]4)cccc32)ccn1 (racemic) [Example 125, N-[4-(3H-imidazo[4,5-c]pyridin-2-yl)-9H-fluoren-9(R,S)-yl]amide of 2-tert-butoxycarbonylaminoisonicotinic acid]
  IC50: < 1 µM

## O=C(NC1c2ccccc2-c2c(-c3nc4ccncc4[nH]3)cccc21)c1c(Br)cnc2[nH]cnc12 (racemic) [Example 118, [4-(3H-imidazo[4,5-c]pyridin-2-yl)-9H-fluoren-9(R,S)-yl]amide of 6-bromo-3H-imidazo[4,5-b]pyridine-7-carboxylic acid]
  IC50: < 1 µM

## O=C(NC1c2ccccc2-c2c(-c3nc4ccncc4[nH]3)cccc21)c1cccnc1 (racemic) [Example 48, N-[4-(3H-imidazo[4,5-c]pyridin-2-yl)-9H-fluoren-9(R,S)-yl]-nicotinamide]
  IC50: 1 to 10 µM

## Cc1cnccc1C(=O)NC1c2ccccc2-c2c(-c3nc4ccncc4[nH]3)cccc21 (racemic) [Example 96, N-[4-(3H-imidazo[4,5-c]pyridin-2-yl)-9H-fluoren-9(R,S)-yl]-3-methyl-isonicotinamide]
  IC50: 1 to 10 µM

## O=CNC1c2ccccc2-c2c(-c3nc4cnccc4[nH]3)cccc21 (racemic) [Example 12, N-[4-(3H-imidazo[4,5-c]pyridin-2-yl)-9H-fluoren-9(R,S)-yl]-formamide]
  IC50: 10 to 100 µM

## O=C(NC1c2ccccc2-c2c(-c3nc4ccncc4[nH]3)cccc21)c1cc[nH]n1 (racemic) [Example 39, [4-(3H-imidazo[4,5-c]pyridin-2-yl)-9H-fluoren-9(R,S)-yl]amide trifluoroacetate of 1H-pyrazole-3-carboxylic acid]
  IC50: 1 to 10 µM

## CC(=O)CCC(=O)NC1c2ccccc2-c2c(-c3nc4ccncc4[nH]3)cccc21 (racemic) [Example 49, hydrochloride of [4-(3H-imidazo[4,5-c]pyridin-2-yl)-9H-fluoren-9(R,S)-yl]amide of 4-oxo-pentanoic acid]
  IC50: 10 to 100 µM

## O=C(NC1c2ccccc2-c2c(-c3nc4ccncc4[nH]3)cccc21)c1cccc(O)c1 (racemic) [Example 50, hydrochloride of 3-hydroxy-N-[4-(3H-imidazo[4,5-c]pyridin-2-yl)-9H-fluoren-9(R,S)-yl]-benzamide]
  IC50: 1 to 10 µM

## NC(=O)C[C@H](N)C(=O)NC1c2ccccc2-c2c(-c3nc4cnccc4[nH]3)cccc21 (stereo partly drawn) [Example 63, hydrochloride of (S)-2-amino-N1-[4-(3H-imidazo[4,5-c]pyridin-2-yl)-9H-fluoren-9(R,S)-yl]-succinamide]
  IC50: 1 to 10 µM

## O=C(C=C1c2ccccc2-c2c1cccc2-c1nc2cnccc2[nH]1)Nc1cccnc1 (mixture of isomers) [Example 17, 2-[4-(3H-imidazo[4,5-c]pyridin-2-yl)-fluoren-(9E,Z)-ylidene]-N-pyridin-3-yl-acetamide]
  IC50: 1 to 10 µM

## O/N=C1/c2ccccc2-c2c1cccc2-c1nc2cnccc2[nH]1 [Example 23, 4-(3H-imidazo[4,5-c]pyridin-2-yl)-fluoren-9-one oxime (E)]
  IC50: < 1 µM

## NN=C1c2ccccc2-c2c1cccc2-c1nc2cnccc2[nH]1 (mixture of isomers) [Example 9, N-[4-(1H-imidazo[4,5-c]pyridin-2-yl)-fluoren-9-ylidene]-hydrazine, 60/40 mixture of E and Z isomers]
  IC50: 1 to 10 µM

## O=C(NC1c2ccccc2-c2c(-c3nc4ccncc4[nH]3)cccc21)c1cc(C2CC2)nc2ccccc12 (stereo not shown) [Example 85, [4-(3H-imidazo[4,5-c]pyridin-2-yl)-9H-fluoren-9-yl]amide of 2-cyclopropyl-quinoline-4-carboxylic acid]
  IC50: 1 to 10 µM

## c1ccc2c(c1)-c1c(-c3nc4cnccc4[nH]3)cccc1C2NCc1ccc2[nH]ccc2c1 (racemic) [Example 18, N-[4-(3H-imidazo[4,5-c]pyridin-2-yl)-9H-fluoren-9(R,S)-yl]-(1H-indol-5-ylmethyl)-amine]
  IC50: 10 to 100 µM
